The values below are quoted from earlier work in patent US6576673B2, “Method of deterring woodpeckers” (priority 2001, dated 2003).

The data set relates to golden fronted adult woodpeckers. As to conditions: painted or applied to a surface of a utility pole; smaller golden fronted adult woodpeckers.

Regarding `CC1=CC(=O)CC(C)(C)C1` [Isophorone, 3,5,5-trimethyl-2-cyclohexen-one-1], the repelling woodpeckers entry was “effective in repelling woodpeckers”.
